Data as given in ChEMBL document CHEMBL3885881, “DrugMatrix”.

Species on record: Rattus norvegicus
Experiment: DrugMatrix - Regimen: Daily Repeat
Format: toxicity, organism-based, Sprague-Dawley
Design: regimen Daily Repeat, gender Male, age 6-8 weeks
Details: in vivo, po, route oral GAVAGE, vehicle 100 % WATER; for ABSOLUTE BASOPHIL / ABSOLUTE EOSINOPHIL / ABSOLUTE LYMPHOCYTE / ABSOLUTE MONOCYTE / ABSOLUTE SEGMENTED NEUTROPHIL / BASOPHIL / EOSINOPHIL / ERYTHROCYTE COUNT / HEMATOCRIT / HEMOGLOBIN / LEUKOCYTE COUNT / LYMPHOCYTE / MEAN CORPUSCULAR HEMOGLOBIN / MEAN CORPUSCULAR HEMOGLOBIN CONCENTRATION / MEAN CORPUSCULAR VOLUME / MONOCYTE / NEUTROPHIL / NUCLEATED RED BLOOD CELLS / PLATELET COUNT: tissue Blood; for ALANINE AMINOTRANSFERASE / ALBUMIN / ALKALINE PHOSPHATASE / ASPARTATE AMINOTRANSFERASE / BLOOD UREA NITROGEN / CARBON DIOXIDE / CHLORIDE / CHOLESTEROL / CREATINE PHOSPHOKINASE / CREATININE / GLUCOSE / LACTATE DEHYDROGENASE / LIPASE / PHOSPHORUS / POTASSIUM / SODIUM / TOTAL BILIRUBIN / TOTAL PROTEIN / URIC ACID: tissue Plasma
[1] = 0 mg/kg, 72 h, dose level Control, time 3 day
[2] = 0 mg/kg, 120 h, dose level Control, time 5 day
[3] = 200 mg/kg, 72 h, dose level Low, time 3 day

CC(O)CO (centres undefined) [PROPYLENE GLYCOL]
ABSOLUTE BASOPHIL [1]: 0 CELLS/uL | ABSOLUTE EOSINOPHIL [1]: 40 CELLS/uL | ABSOLUTE LYMPHOCYTE [1]: 13599.5 CELLS/uL | ABSOLUTE MONOCYTE [1]: 239.33 CELLS/uL | ABSOLUTE SEGMENTED NEUTROPHIL [1]: 1021.17 CELLS/uL | BASOPHIL [1]: 0% | EOSINOPHIL [1]: 0.33% | ERYTHROCYTE COUNT [1]: 5.71 x10E6/uL | HEMATOCRIT [1]: 36.35% | HEMOGLOBIN [1]: 14.05 G/DL | LEUKOCYTE COUNT [1]: 14.9 x10E3/uL | LYMPHOCYTE [1]: 91% | MEAN CORPUSCULAR HEMOGLOBIN [1]: 24.62 pg | MEAN CORPUSCULAR HEMOGLOBIN CONCENTRATION [1]: 38.65 G/DL | MEAN CORPUSCULAR VOLUME [1]: 63.7 fL | MONOCYTE [1]: 1.5% | NEUTROPHIL [1]: 7.17% | NUCLEATED RED BLOOD CELLS [1]: 0.33 /100WBC | PLATELET COUNT [1]: 1225.5 x10E3/uL | ALANINE AMINOTRANSFERASE [1]: 48.5 u/L | ALBUMIN [1]: 4.18 G/DL | ALKALINE PHOSPHATASE [1]: 390.83 u/L | ASPARTATE AMINOTRANSFERASE [1]: 89 u/L | BLOOD UREA NITROGEN [1]: 14.83 mg/dL | CARBON DIOXIDE [1]: 24.83 mmol/L | CHLORIDE [1]: 100.83 MEQ/L | CHOLESTEROL [1]: 72.5 mg/dL | CREATINE PHOSPHOKINASE [1]: 503 u/L | CREATININE [1]: 0.2 mg/dL | GLUCOSE [1]: 163 mg/dL | LACTATE DEHYDROGENASE [1]: 316.83 u/L | LIPASE [1]: 9.83 u/L | PHOSPHORUS [1]: 11.57 mg/dL | POTASSIUM [1]: 6.16 MEQ/L | SODIUM [1]: 142.62 MEQ/L | TOTAL BILIRUBIN [1]: 0.2 mg/dL | TOTAL PROTEIN [1]: 5.8 G/DL | URIC ACID [1]: 1.65 mg/dL | ABSOLUTE BASOPHIL [2]: 0 CELLS/uL | ABSOLUTE EOSINOPHIL [2]: 21 CELLS/uL | ABSOLUTE LYMPHOCYTE [2]: 14288.5 CELLS/uL | ABSOLUTE MONOCYTE [2]: 205.33 CELLS/uL | ABSOLUTE SEGMENTED NEUTROPHIL [2]: 968.5 CELLS/uL | BASOPHIL [2]: 0% | EOSINOPHIL [2]: 0.17% | ERYTHROCYTE COUNT [2]: 5.83 x10E6/uL | HEMATOCRIT [2]: 36.53% | HEMOGLOBIN [2]: 14.4 G/DL | LEUKOCYTE COUNT [2]: 15.48 x10E3/uL | LYMPHOCYTE [2]: 92% | MEAN CORPUSCULAR HEMOGLOBIN [2]: 24.72 pg | MEAN CORPUSCULAR HEMOGLOBIN CONCENTRATION [2]: 39.43 G/DL | MEAN CORPUSCULAR VOLUME [2]: 62.68 fL | MONOCYTE [2]: 1.33% | NEUTROPHIL [2]: 6.5% | NUCLEATED RED BLOOD CELLS [2]: 0.17 /100WBC | PLATELET COUNT [2]: 1280.5 x10E3/uL | ALANINE AMINOTRANSFERASE [2]: 50 u/L | ALBUMIN [2]: 4.28 G/DL | ALKALINE PHOSPHATASE [2]: 380.17 u/L | ASPARTATE AMINOTRANSFERASE [2]: 82.67 u/L | BLOOD UREA NITROGEN [2]: 15.33 mg/dL | CARBON DIOXIDE [2]: 27.17 mmol/L | CHLORIDE [2]: 100.33 MEQ/L | CHOLESTEROL [2]: 60.67 mg/dL | CREATINE PHOSPHOKINASE [2]: 441.5 u/L | CREATININE [2]: 0.16 mg/dL | GLUCOSE [2]: 146 mg/dL | LACTATE DEHYDROGENASE [2]: 189.33 u/L | LIPASE [2]: 9.17 u/L | PHOSPHORUS [2]: 11.67 mg/dL | POTASSIUM [2]: 6.86 MEQ/L | SODIUM [2]: 142.33 MEQ/L | TOTAL BILIRUBIN [2]: 0.2 mg/dL | TOTAL PROTEIN [2]: 6.12 G/DL | URIC ACID [2]: 1.82 mg/dL | ABSOLUTE BASOPHIL [3]: 0 CELLS/uL | ABSOLUTE EOSINOPHIL [3]: 56 CELLS/uL | ABSOLUTE LYMPHOCYTE [3]: 15882 CELLS/uL | ABSOLUTE MONOCYTE [3]: 135.33 CELLS/uL | ABSOLUTE SEGMENTED NEUTROPHIL [3]: 1393.33 CELLS/uL | BASOPHIL [3]: 0% | EOSINOPHIL [3]: 0.33% | ERYTHROCYTE COUNT [3]: 5.52 x10E6/uL | HEMATOCRIT [3]: 35.37% | HEMOGLOBIN [3]: 13.53 G/DL | LEUKOCYTE COUNT [3]: 17.47 x10E3/uL | LYMPHOCYTE [3]: 90.67% | MEAN CORPUSCULAR HEMOGLOBIN [3]: 24.5 pg | MEAN CORPUSCULAR HEMOGLOBIN CONCENTRATION [3]: 38.27 G/DL | MEAN CORPUSCULAR VOLUME [3]: 64.1 fL | MONOCYTE [3]: 0.67% | NEUTROPHIL [3]: 8.33% | NUCLEATED RED BLOOD CELLS [3]: 0.33 /100WBC | PLATELET COUNT [3]: 1345.33 x10E3/uL | ALANINE AMINOTRANSFERASE [3]: 59 u/L | ALBUMIN [3]: 4.47 G/DL | ALKALINE PHOSPHATASE [3]: 378.33 u/L | ASPARTATE AMINOTRANSFERASE [3]: 90.33 u/L | BLOOD UREA NITROGEN [3]: 16.33 mg/dL | CARBON DIOXIDE [3]: 27.33 mmol/L | CHLORIDE [3]: 99.67 MEQ/L | CHOLESTEROL [3]: 81.33 mg/dL | CREATINE PHOSPHOKINASE [3]: 318 u/L | CREATININE [3]: 0.22 mg/dL | GLUCOSE [3]: 153.67 mg/dL | LACTATE DEHYDROGENASE [3]: 212.33 u/L | LIPASE [3]: 9 u/L | PHOSPHORUS [3]: 13.4 mg/dL | POTASSIUM [3]: 7.26 MEQ/L | SODIUM [3]: 145.23 MEQ/L | TOTAL BILIRUBIN [3]: 0.2 mg/dL | TOTAL PROTEIN [3]: 6.13 G/DL | URIC ACID [3]: 2.2 mg/dL
